This is an account of results in article PMC9773353 (ACS Omega, 2022).

Several values for one entry are separate records, joined by “and”; a condition that tells them apart may be missing. Equal entries are not always repeated.

What is called IC50 is the concentration at which inhibition is half-maximal. The low end stands for higher potency, the high end for lower potency. In general, viability refers to the share of living cells, or the viability signal relative to a control. A lower viability goes with more harm to the cells.

In one data set the target is hCA XII (Homo sapiens, UniProt O43570). As to the kind of experiment: Carbonic anhydrase inhibition assay. It is filed as biochemical.
The nature of data set [1]: MTT cell viability assay, HEK-293 T normal cells. It is filed as cell-based. The settings on record: human, HEK-293 T normal cells; for viability at 100 µM: % cell viability ± SD (HEK-293 T cells), 24–48 h incubation, MTT, vs untreated control. (Formazan colour is commonly taken as a measure of viable cells.)
The next data set has as its target hCA IX (Homo sapiens, UniProt Q16790). As to the kind of experiment: biochemical.
Another data set deals with hCA II (Homo sapiens, UniProt P00918). As to the kind of experiment: Carbonic anhydrase inhibition assay. It is filed as biochemical. The settings on record: for IC50: IC50 ± SEM hCA II, mean of three independent experiments; for inhibition of hCA-II in words: text grading of Table 4 results.
A further data set concerns BHK-21 normal cells. As to the kind of experiment: MTT cell viability assay, BHK-21 normal cells. It is filed as cell-based. The settings on record: 100 μM, 24–48 h incubation; for % cell viability ± SD (BHK-21 cells): vs untreated control.
Another data set relates to HEK-293 T normal cells. Briefly: MTT cell viability assay, HEK-293 T normal cells. The format is cell-based. The settings on record: 100 μM, 24–48 h incubation, MTT; for % cell viability ± SD (HEK-293 T cells): vs untreated control.

Sequence of hCA XII (O43570 25-354): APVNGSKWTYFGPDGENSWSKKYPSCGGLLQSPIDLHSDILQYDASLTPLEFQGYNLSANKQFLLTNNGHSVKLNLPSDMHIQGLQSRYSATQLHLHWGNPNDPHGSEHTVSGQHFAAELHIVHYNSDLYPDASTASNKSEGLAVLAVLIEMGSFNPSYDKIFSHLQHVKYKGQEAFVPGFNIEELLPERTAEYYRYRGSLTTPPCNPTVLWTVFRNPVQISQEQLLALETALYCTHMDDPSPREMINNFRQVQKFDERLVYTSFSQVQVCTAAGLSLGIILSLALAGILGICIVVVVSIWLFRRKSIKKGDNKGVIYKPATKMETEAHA

With `Cc1cc(C)cc(C(=O)NC(=S)Nc2ccccc2O)c1` [Compound 24, N-((2-Hydroxyphenyl)carbamothioyl)-3,5-dimethylbenzamide], the IC50 is 9.9 ± 0.66 µM against hCA XII, 1.25 ± 0.02 µM on hCA IX and 1.24 ± 0.96 µM against hCA II. Further, the cytotoxicity at 100 µM in data set [1] came out at 18 ± 0.03%. The molecule further came in with a viability at 100 µM in data set [1] of 81 ± 0.1%.

In data set [1], `Cc1ccc(C(=O)NC(=S)Nc2ccc(C(=O)O)cc2)c(C)c1` [Compound 25, 4-(3-(2,4-Dimethylbenzoyl)thioureido) Benzoic Acid] gave a cytotoxicity at 100 µM of 2 ± 0.02% and a viability at 100 µM of over 90%. In addition, 9.76 ± 1.03 µM corresponded to half-maximal inhibition against hCA IX (IC50). The molecule also returned an IC50 against hCA II of 0.38 ± 0.01 µM.

Consider “N-((3-Bromo-5-(trifluoromethyl) phenyl) carbamothioyl)-3,4-dimethoxybenzamide [Compound 23]”, for which, in the data set with BHK-21 normal cells, the “% cytotoxicity ± SD (BHK-21 cells)” value is 65.0 ± 0.06%. The “% cytotoxicity ± SD (HEK-293 T cells)” value in the data set on HEK-293 T normal cells was determined as 26 ± 0.06%. In addition, on hCA II, the “inhibition of hCA-II in words” value was “did not show any inhibition”.

As for “N-((2-Hydroxyphenyl) carbamothioyl)-3,4-dimethoxybenzamide [Compound 20]”, in the data set on BHK-21 normal cells, the “% cytotoxicity ± SD (BHK-21 cells)” value came to 54.6 ± 0.02% and the “% cell viability ± SD (BHK-21 cells)” value was 45 ± 0.09%. Besides, in the data set on HEK-293 T normal cells, the “% cytotoxicity ± SD (HEK-293 T cells)” value is given as 13 ± 0.03% and the “% cell viability ± SD (HEK-293 T cells)” value turned out to be 86 ± 0.07%. In addition, the “inhibition of hCA-II in words” value at hCA II is recorded as “did not show any inhibition”.

In data set [1], `Cc1ccc(C(=O)Nc2cccc(C(=O)O)c2)c(C)c1` [Compound 13, 3-(2,4-Dimethylbenzamido) Benzoic Acid] came in with a cytotoxicity at 100 µM of 14 ± 0.09% and a viability at 100 µM of 86 ± 0.6%. Moreover, on hCA IX, half-maximal inhibition (IC50) required 10.4 ± 1.45 µM.

As to `COc1ccc(C(=O)NC(=S)Nc2ccc(C(=O)O)cc2)cc1OC` [Compound 18, 4-(3-(3,4-Dimethoxybenzoyl)thioureido) Benzoic Acid], the IC50 against hCA XII was found to be 1.68 ± 0.15 µM; against hCA IX, 0.21 ± 0.09 µM; against hCA II, 4.17 ± 0.29 µM. Further, in data set [1], the cytotoxicity at 100 µM worked out at 24 ± 0.07%. Also, the viability at 100 µM in data set [1] stood at 75%. Also, at hCA II, the “inhibition of hCA-II in words” value is on record as “moderate inhibition”.

Consider `Cc1cc(C)cc(C(=O)Nc2cc(Cl)c(S(N)(=O)=O)cc2S(N)(=O)=O)c1` [Compound 11, N-(5-Chloro-2,4-disulfamoylphenyl)-3,5-dimethylbenzamide], for which the IC50 against hCA XII was 2.99 ± 0.32 µM; on hCA IX, 0.17 ± 0.05 µM; against hCA II, 1.19 µM and 1.18 µM. For the same molecule, in data set [1], the cytotoxicity at 100 µM came to 27 ± 0.06%. For the same molecule, the viability at 100 µM in data set [1] was 72 ± 0.6%.

Molecule `COc1ccc(C(=O)Nc2cc(Cl)c(O)c(Cl)c2)cc1OC` [Compound 12, N-(3,5-Dichloro-4-hydroxyphenyl)-3,4-dimethoxybenzamide] returned an IC50 at hCA XII of 0.58 ± 0.06 µM. In data set [1], this molecule registered a cytotoxicity at 100 µM of 26.6 ± 0.06% and a viability at 100 µM of 73 ± 0.1%. The “inhibition of hCA-II in words” value at hCA II is recorded as “did not show any inhibition”.

In data set [1], `COc1ccc(C(=O)NC(=S)Nc2c(Cl)cc([N+](=O)[O-])cc2Br)cc1OC` [Compound 19, N-((2-Bromo-6-chloro-4-nitrophenyl)carbamothioyl)-3,4-dimethoxybenzamide] gave a cytotoxicity at 100 µM of 50 ± 0.08% and a viability at 100 µM of 49 ± 0.6%. Besides, at hCA IX, it took 1.01 ± 0.05 µM to reach half-maximal inhibition (IC50). The IC50 against hCA II was 0.725 µM and 0.72 µM.

Turning to `Cc1cc(C)cc(C(=O)Nc2cc([N+](=O)[O-])ccc2Cl)c1` [Compound 14, N-(2-Chloro-5-nitrophenyl)-3,5-dimethylbenzamide], the IC50 on hCA XII was 0.95 ± 0.08 µM. In data set [1], the cytotoxicity at 100 µM was found to be 15 ± 0.4% and the viability at 100 µM was determined as 85 ± 0.1%. Further, at hCA II, the midpoint of inhibition, the IC50, lay at 6.49 ± 0.63 µM and the “inhibition of hCA-II in words” value was “moderate inhibition”.

Regarding “3-(3-(3,4-Dimethoxybenzoyl) thioureido) Benzoic Acid [Compound 21]”, in the data set on BHK-21 normal cells, the “% cytotoxicity ± SD (BHK-21 cells)” value came to 51.5 ± 0.06% and the “% cell viability ± SD (BHK-21 cells)” value is reported as 48 ± 0.1%. Also, in the data set with HEK-293 T normal cells, the “% cytotoxicity ± SD (HEK-293 T cells)” value worked out at 13 ± 0.05% and the “% cell viability ± SD (HEK-293 T cells)” value is listed as 86 ± 0.6%.

On to `COc1ccc(C(=O)NC(=S)Nc2cc([N+](=O)[O-])ccc2Cl)cc1OC` [Compound 22, N-((2-Chloro-5-nitrophenyl)carbamothioyl)-3,4-dimethoxybenzamide], for which the IC50 was 4.29 ± 0.24 µM at hCA XII, 4.93 ± 1.83 µM at hCA IX and 0.26 ± 0.03 µM on hCA II. In data set [1], this molecule registered a cytotoxicity at 100 µM of 9 ± 0.05%. In data set [1], this molecule returned a viability at 100 µM of over 90%.

`Cc1cc(C)cc(C(=O)Nc2cc(Br)cc(C(F)(F)F)c2)c1` [Compound 15, N-(3-Bromo-5-(trifluoromethyl)phenyl)-3,5-dimethylbenzamide]: the half-inhibitory concentration (IC50) on hCA XII came to 1.05 ± 0.11 µM. In data set [1], this molecule gave a cytotoxicity at 100 µM of 18 ± 0.6% and a viability at 100 µM of 82 ± 0.6%. On hCA II, the half-maximal inhibitory concentration (IC50) worked out at 1.93 ± 0.15 µM.

In data set [1], `COc1ccc(C(=O)NC(=S)Nc2cc(Cl)c(S(N)(=O)=O)cc2S(N)(=O)=O)cc1OC` [Compound 17, N-((5-Chloro-2,4-disulfamoylphenyl)carbamothioyl)-3,4-dimethoxybenzamide] displayed a cytotoxicity at 100 µM of 3 ± 0.04% and a viability at 100 µM of 97 ± 0.3%. In addition, the IC50 against hCA IX was determined as 1.71 ± 0.65 µM. Besides, on hCA II, the IC50 amounted to 11.5 ± 0.16 µM and the “inhibition of hCA-II in words” value is given as “moderate inhibition”.

`Cc1cc(C)cc(C(=O)NC(=S)Nc2cc(Cl)c(O)c(Cl)c2)c1` [Compound 26, N-((3,5-Dichloro-4-hydroxyphenyl)carbamothioyl)-3,5-dimethylbenzamide] showed an IC50 at hCA XII of 2.02 ± 0.28 µM. In addition, in data set [1], the cytotoxicity at 100 µM was found to be 2 ± 0.06% and the viability at 100 µM is over 90%. This molecule also came in with an IC50 at hCA IX of 1.28 ± 0.09 µM. Also, at hCA II, half-maximal inhibition (IC50) was put at 4.45 ± 0.11 µM and the “inhibition of hCA-II in words” value is reported as “moderate inhibition”.
